Common to all, as to assay type: cell-based, human
For experiment [1], the system named is nm23H1 protein (19.6 kDa form coded by nm23H1-B gene). Briefly: Two-dimensional PAGE / MALDI of untreated and 5FU treated Colo 205 cell lysate, differentially expressed proteins. The following applies: colo 205 cells, 100 μM, 24 hrs, 2D PAGE spot intensity. On the procedure:
Two-dimensional gel electrophoresis was carried out to identify differentially expressed proteins on treatment with anticancer agents specifically, colon/colorectal cancer cell line (NCCS, Pune, India) was treated with 5-FU (Fivoflu, Dabur Pharma Ltd, India). Untreated cells (cells, not treated with 5FU) were taken as control.
100 μM of 5-FU was added to colo 205 cells seeded at 80% confluence and were harvested after 24 hrs of treatment. Cells were lysed in lysis buffer (Urea 0.54 g/ml, CHAPS 40 mg/ml and DTT 20 mg/ml) and the clear supernatant of treated and untreated (not treated with 5-FU) cell lysate were subjected to isoelectric focusing (Bio-Rad, Protean IEF Cell) on separate 17 cm IPG strips of 4-7 pH range.
Second dimension electrophoresis was subsequently carried out on a 12% SDS-PAGE (Protean II XL electrophoresis system, Bio-Rad). The gel was silver stained for visualization of the protein spots and a digitized image of the 2D gel was generated, using GS 800 Densitometer (Bio-Rad). […]
The protein spots showing more than 2-fold change in intensity in 5-FU treated and untreated samples were further analyzed. […] The dried samples were reconstituted in 10 μl of 0.1% (v/v of 50% acetonitrile) trifluoroacetic acid and peptides were detected on a Matrix-Assisted Laser Desorption/Ionisation-Time of Flight Mass Spectrometry (MALDI-TOF MS) (Voyager-DE STR). […]

Experiment [2] deals with nm23H1-B gene. As to the kind of experiment: RT-PCR / real time PCR of nm23H1-B mRNA in 5-FU treated colon cancer cell lines (Colo 205, HT29). On the procedure: (§1) The over expression of nm23H1-B was checked at RNA level by RT-PCR. Colo 205 cells were seeded in 6 well plates at 80% confluence and treated with 100 μM of 5FU for 24 hrs. Subsequently, 1 ml of Trizol reagent (Invitrogen) was added to the cells after a phosphate buffer saline washing for extraction of RNA. The total RNA was extracted using chloroform-isopropyl alcohol method. Finally, the pellet was washed with 70% ethanol and dried on a speed-vac. Control RNA from untreated cells was also extracted in a similar fashion (cells, not treated with 5FU.
(§2) RT-PCR was carried out using one step RT-PCR Kit (Qiagen) according to manufacturer's instructions. 1 μg of RNA was taken and mixed with specific primers of nm23H1A & nm23H1B respectively (Table 1, SEQ ID: 3,4,5). β2-micro globulin (primer sequence, Table 1, SEQ ID: 6,7) was used as a control. The PCR amplified samples were then analyzed on a 1.5% agarose gel.

Experiment [3] concerns nm23H1-A. Briefly: RT-PCR / real time PCR of nm23H1-A mRNA in 5-FU treated colon cancer cell lines. The following applies: Colo 205 cells, 100 μM, 24 hrs. On the procedure: as §1, §2
Experiment [4] concerns nm23H1-B protein. As to the kind of experiment: Western blot of nuclear and cytosolic fractions of 5FU treated Colo 205 cells. The following applies: 100 μM, 24 hours. On the procedure:
Intracellular localization of both nm23H1-A & nm23H1-B gene was evaluated by Western Blot analysis. Colo 205 cells were treated with 100 μM 5FU for 24 hours and cells were removed from their dishes by gentle scraping. Cells were washed with cold PBS and then resuspended in cold nuclei extraction buffer (320 mM sucrose, 5 mM Mgcl2, 10 mM HEPES, 1% Triton X-100 at pH 7.4) at a ratio of 1 ml per million cells. Nuclear fraction was then pelleted by centrifugation at 2000×g and washed twice with nuclei washing buffer (same as nuclei extraction buffer without Triton X-100). Supernatant was collected separately as a cytosolic fraction. Protein was estimated in both nuclear and cytosolic fraction and equal amount of protein was loaded on a 15% SDS PAGE followed by electrobloting on to a polyvinylidene difluoride membrane. Transferred proteins were incubated with blocking buffer containing 3% bovine serum albumin in phosphate-buffered saline. Polyclonal antibody specific for nm23 protein (Santa Cruz) and peroxidase-labeled goat anti-rabbit IgG (Sigma) were used to probe the target gene.
In general terms: Immunoblotting shows a protein as a band on a membrane.

Experiment [5] has as its system nm23H1-B gene. As to the kind of experiment: nm23H1-B mRNA expression in colon cancer cells treated with different anticancer agents (RT-PCR and real time PCR). The following applies: HT29 cell line, 24 hrs. On the procedure:
To study the effect of other anticancer agents on expression of nm23H1-B gene, we took representative of different classes of anticancer agents like alkylating agents (cisplatin), topoisomerase I and II inhibitors (CPT-11), RNA/DNA antimetabolites (5-FU) and antimitotic agents (paclitaxel).
Cells were treated with different anticancer agents for 24 hrs and RNA was isolated.
Background: In qPCR the cycle at which signal appears reflects the starting amount.

Experiment [6] deals with nm23H1-A. As to the kind of experiment: nm23H1-A mRNA expression in colon cancer cells treated with different anticancer agents (RT-PCR and real time PCR). As to conditions: HT29 cell line, 24 hrs.

Turning to `O=c1[nH]cc(F)c(=O)[nH]1` [5-FU], in experiment [1], the “up regulation of nm23H1 protein in treated cells as compared to untreated” value is on record as “more than 6 fold”. For the same compound, the “change in nm23H1-B gene expression (RNA level)” value in experiment [2] (Colo 205 cells, 100 μM, 24 hrs, RT-PCR) is “up regulation”. Moreover, in experiment [2] (colon/colorectal cancer cells), the “overexpression of nm23H1-B gene” value was “about nine”. Also, the “change in nm23H1-A expression level (RNA level)” value in experiment [3] is given as “insignificant change”. Moreover, in experiment [4], the nm23H1-B protein level entry was “up-regulation”. Further, the “mRNA levels of nm23H1-B” value in experiment [5] was “Increase”. Moreover, the “mRNA levels of nm23H1-A” value in experiment [6] was “Increase”.

On to `CCc1c2c(nc3ccc(OC(=O)N4CCC(N5CCCCC5)CC4)cc13)-c1cc3c(c(=O)n1C2)COC(=O)[C@]3(O)CC` [CPT11, camptothecin-11], for which, in experiment [5], the “mRNA levels of nm23H1-B” value is given as “Increase”. Moreover, in experiment [6], the “mRNA levels of nm23H1-A” value is given as “Increase”.

As to `N.N.[Cl][Pt][Cl]` [cisplatin], the “mRNA levels of nm23H1-B” value in experiment [5] is recorded as “Increase”. Moreover, the “mRNA levels of nm23H1-A” value in experiment [6] was “Increase”.

Take `CC(=O)O[C@H]1C(=O)[C@@]2(C)[C@H]([C@H](OC(=O)c3ccccc3)[C@]3(O)C[C@H](OC(=O)[C@H](O)[C@@H](NC(=O)c4ccccc4)c4ccccc4)C(C)=C1C3(C)C)[C@]1(OC(C)=O)CO[C@@H]1C[C@@H]2O` [paclitaxel]: the “mRNA levels of nm23H1-B” value in experiment [5] is “Increase”. In addition, the “mRNA levels of nm23H1-A” value in experiment [6] is “Increase”.

These data come from US20100222416A1, “Diagnostic Marker and Therapeutic Target for Cancer” (priority 2005, published 2010).
